Reference: patent US9233961B2, “Compounds and compositions for the treatment of parasitic diseases” (Novartis AG, priority 2013, dated 2016)
Like-named read-outs stand apart in the source and are kept apart here.

Assays:
[1] = system: Leishmania donovani axenic amastigote parasites; experiment: Leishmania donovani axenic amastigote proliferation assay; format: cell-based; conditions: read-out: L. donovani amastigotes EC50
How it was run: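 L. donovani axenic amastigotes (9600/well) in RPMI 1640 with 20% heat-inactivated FBS, folic acid, adenosine, glucose and 25 mM MES, pH 5.5, were incubated with compounds for 2 days at 37 °C, 5% CO2. Viability read by CellTiter-Glo luminescence; EC50 calculated.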

[2] = system: L. donovani HU3 strain in mouse peritoneal macrophages; experiment: Assay for proliferation of Leishmania parasites in mouse peritoneal macrophages; format: cell-based, Leishmania donovani; conditions: Leishmania donovani, Peritoneal macrophage, read-out: L. donavani Macrophage EC50
How it was run: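 BALB/c peritoneal macrophages infected 24 h with L. donovani HU3 amastigotes taken from spleens of mice infected 9–11 weeks, then treated with compound for 5 days at 37° C, 5% CO2. Parasite nuclei counted by SYBR Green imaging after fixation; EC50 from percentage inhibition.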

[3] = system: Trypanosoma brucei Lister 427 strain bloodstream form; experiment: Assay for proliferation of kinetoplastid parasite Trypanosoma brucei; format: cell-based; conditions: read-out: T. brucei EC50
Description: Assay for Proliferation of Kinetoplastid Parasite Trypanosoma brucei.
The proliferation is quantified by the addition of Cell Titer Glo (Promega®) a luminescent cell viability assay that measures the number of viable cells in culture based on the quantification of cellular ATP amount, which is an indicator of metabolically active cells.
The following assay illustrates the invention without in any way limiting the scope of the invention. This parasite proliferation assay measures the increase in parasite growth using an assay that measures ATP activity, Cell Titer Glo®.
Trypanosoma brucei Lister 427 strain is grown in HMI-9 Trypanosome media for T. brucei bloodstream form. 30 μl of HMI-9 media is dispensed into 384 well assay plates. 200 nl of compounds of the invention (in DMSO), including anti-trypanosome controls (Pentamidine and suramin), are then transferred into the assay plates, as well as DMSO alone to serve as a negative control for inhibition. Then 25 μl of a suspension of T. brucei culture in HMI-9 media is dispensed into the assay plates. The final concentration of parasites in culture corresponds to 1.7% of 0.5 uM ATP activity with Cell Titer Glo® in HMI-9 media. The plates are placed in a 37° C. incubator for 48 hours in an atmospheric environment containing 5% CO2. 40 μl of Cell Titer Glo® is dispensed into the plates. The plates are then read for luminescence. The percentage inhibition of 50%, EC50, is calculated for each compound.

[4] = Lister 427 bloodstream form, 48 hours

Compound	EC50 [1] [µM]	EC50 [2] [µM]	EC50 ([3]; 48 h) [µM]	EC50 ([1]; axenic amastigotes in vitro) [µM]	EC50 [3, 4] [µM]
Cc1cnc2nc(-c3cc(NCc4ccco4)ccc3Cl)[nH]c2c1 [Example 266, 4-chloro-N-(furan-2-ylmethyl)-3-{6-methyl-1H-imidazo[4,5-b]pyridin-2-yl}aniline]	> 25	> 40.5	> 25		
Cc1cnc2nc(-c3cc(NC(=O)c4cccc5c4OCC5)ccc3Cl)[nH]c2c1 [Compound 180]		13.2		> 25	8.3
Cc1cnc2nc(-c3cc(NC(=O)c4cc(C)on4)ccc3Cl)[nH]c2c1 [Compound 79]		> 50		> 25	12.5
Cc1cnc2nc(-c3cc(NC(=O)c4nccs4)ccc3Cl)[nH]c2c1 [Compound 192]		> 37.9		10.2	0.49
Cc1cnc2nc(-c3cc(NC(=O)c4cc(C5CC5)n[nH]4)ccc3Cl)[nH]c2c1 [Compound 158]		> 50		> 25	13
CCOC(=O)Nc1ccc(Cl)c(-c2nc3ncc(C)cc3[nH]2)c1 [Compound 217]		10.4		5.9	0.8
Cc1cnc2nc(-c3cc(NC(=O)c4ccc(-c5cnccn5)cn4)ccc3Cl)[nH]c2c1 [Compound 166]		> 27.8		> 25	> 25
N#Cc1cnc2nc(-c3cc(NC(=O)c4ccco4)ccc3Cl)[nH]c2c1 [Example 286, N-(4-chloro-3-{6-cyano-1H-imidazo[4,5-b]pyridin-2-yl}phenyl)furan-2-carboxamide]		7.1		0.61	0.164
Cc1cnc2nc(-c3cc(NC(=O)c4csc(C)n4)ccc3Cl)[nH]c2c1 [Compound 107]		21.5		5.5	0.51
Cc1cnc2nc(-c3cc(NC(=O)c4ccno4)ccc3Cl)[nH]c2c1 [Compound 155]		> 39.7		7.2	4.3
Cc1cnc2nc(-c3cc(NC(=O)C(c4ccc(Cl)cc4)C(C)C)ccc3Cl)[nH]c2c1 (stereo not drawn) [Compound 141]		9.7		13.9	6.2
Cc1cnc2nc(-c3cc(NC(=O)C(C)c4ccc(F)cc4)ccc3Cl)[nH]c2c1 (stereo not drawn) [Compound 119]		24.2		> 25	> 16.2
Cc1cnc2nc(-c3cc(NS(=O)(=O)Cc4ccccc4)ccc3Cl)[nH]c2c1 [Example 250, N-(4-chloro-3-{6-methyl-1H-imidazo[4,5-b]pyridin-2-yl}phenyl)-1-phenylmethanesulfonamide]		> 50		> 25	> 25
Cc1cnc2nc(-c3cc(NC(=O)Cn4cncn4)ccc3Cl)[nH]c2c1 [Compound 122]		> 50		> 25	> 25
CN1CCOc2cc(-c3cnc4nc(-c5cc(NC(=O)c6ccco6)ccc5Cl)[nH]c4c3)ccc21 [Compound 72]		3.2		0.67	0.073
Cc1cnc2nc(-c3cc(NC(=O)c4nnc(C)o4)ccc3Cl)[nH]c2c1 [Compound 106]		> 50		> 25	13.3
Cc1ccnc(C(=O)Nc2ccc(Cl)c(-c3nc4ncc(C)cc4[nH]3)c2)c1 [Compound 172]		23.7		> 25	> 15.8
COc1ccc(-c2cnc3nc(-c4cc(NC(=O)c5ccco5)ccc4Cl)[nH]c3c2)cc1Cl [Compound 48]		8		0.53	0.076
COc1ccc(C(C)C(=O)Nc2ccc(Cl)c(-c3nc4ncc(C)cc4[nH]3)c2)cc1 (stereo not drawn) [Compound 165]		23.1		> 24.5	> 11.7
NCc1cnc2nc(-c3cc(NC(=O)c4ccco4)ccc3Cl)[nH]c2c1 [Example 352, N-{3-[6-(aminomethyl)-1H-imidazo[4,5-b]pyridin-2-yl]-4-chlorophenyl}furan-2-carboxamide]		49.5		0.253	0.45

Compound	EC50 [1] [µM]	EC50 [2] [µM]	EC50 ([3]; 48 h) [µM]	EC50 ([1]; axenic amastigotes in vitro) [µM]	EC50 [3, 4] [µM]
Cc1cnc2nc(-c3cc(NC(=O)C(C)(C)c4ccc(Cl)cc4)ccc3Cl)[nH]c2c1 [Compound 81]		16.9		> 25	10.8
Cc1cnc2nc(-c3cc(NC(=O)C(c4ccccc4)C(C)C)ccc3Cl)[nH]c2c1 (stereo not drawn) [Compound 160]		20.3		> 24.6	12.4
Cc1cnc2nc(-c3cc(NC(=O)C(C)(C)N)ccc3Cl)[nH]c2c1 [Compound 194]		> 50		> 25	> 11.7
Cc1cnc2nc(-c3cc(NC(=O)Cc4ccc(C(F)(F)F)cc4)ccc3Cl)[nH]c2c1 [Compound 96]		20.7		> 25	8.9
O=C1Cc2cc(-c3cnc4nc(-c5cc(NC(=O)c6ccco6)ccc5Cl)[nH]c4c3)ccc2N1 [Compound 43]		6.9		0.73	0.0216
Cc1cnc2nc(-c3cc(NC(=O)OCc4ccccc4)ccc3Cl)[nH]c2c1 [Compound 223]		21.4		> 25	14.1
Cc1cnc2nc(-c3cc(NC(=O)c4nc(C)cs4)ccc3Cl)[nH]c2c1 [Compound 80]		18.5		5.9	0.61
Cc1cnc2nc(-c3cc(NC(=O)c4oc(C)nc4C)ccc3Cl)[nH]c2c1 [Compound 139]		25.8		1.06	0.33
CNc1ccc(-c2cnc3nc(-c4cc(NC(=O)c5cscn5)ccc4Cl)[nH]c3c2)cc1 [Compound 349]		2.69		1.35	0.171
Cc1cnc2nc(-c3cc(NC(=O)C4CC(F)(F)C4)ccc3Cl)[nH]c2c1 [Compound 117]		> 50		> 25	> 13.5
Cc1cnc2nc(-c3cc(Nc4cccc5c4CCN(S(C)(=O)=O)C5)ccc3Cl)[nH]c2c1 [Compound 261]		> 50		> 25	15.9
Cc1cnc2nc(-c3cc(NC(=O)Cc4ncccn4)ccc3Cl)[nH]c2c1 [Compound 145]		> 50		> 25	16.1
Cc1cnc2nc(-c3cc(NC(=O)N4CCCC4)ccc3Cl)[nH]c2c1 [Compound 245]		18.8		1.77	0.241
Cc1cnc2nc(-c3cc(NC(=O)c4cncn4C)ccc3Cl)[nH]c2c1 [Compound 207]		> 50		> 25	> 25
Cc1cnc2nc(-c3cc(NC(=O)Cc4ccc(Cl)cc4)ccc3Cl)[nH]c2c1 [Compound 144]		26		> 25	> 11.3
COc1ccc(-c2cnc3nc(-c4cc(NC(=O)c5ccco5)ccc4Cl)[nH]c3c2)cc1S(=O)(=O)N1CCCC1 [Compound 49]		1.05		0.44	0.0067
Cc1cnc2nc(-c3cc(NC(=O)CN)ccc3Cl)[nH]c2c1 [Compound 116]		> 50		> 25	> 25
Cc1ccc(Nc2ccc(Cl)c(-c3nc4ncc(C)cc4[nH]3)c2)nc1 [Compound 262]		13.5		> 25	> 22.4
Cc1cnc2nc(-c3cc(NC(=O)c4noc(C)n4)ccc3Cl)[nH]c2c1 [Compound 161]		> 50		> 25	9.6
Cc1cnc2nc(-c3cc(NC(=O)C4(C)CNC4)ccc3Cl)[nH]c2c1 [Compound 200]		> 50		> 25	> 9.6
